Data reported in patent US12076443B2, “Preparation method of nanozyme composite-based hybrid hydrogel eye drop” (INSTITUTE OF OPHTHALMOLOGY AFFILIATED TO SHANDONG FIRST …, priority 2022, dated 2024).

Tests used:
[1] = test system: P. aeruginosa; assay: in vivo antibacterial experiment, corneal infection (P. aeruginosa); settings: FIGS. 7A-7B
Text: (§1) The TCNH eye drop prepared in the above embodiment was used in in vitro antibacterial experiments for Escherichia coli (E. coli), P. aeruginosa, drug-resistant P. aeruginosa, and Candida albicans (C. albicans) and in vivo prevention and treatment experiments for corneal infections caused by P. aeruginosa and drug-resistant P. aeruginosa.

[2] = test system: Escherichia coli (E. coli); assay: in vitro antibacterial experiment of TCNH eye drop; type: cell-based
Text: as §1
(§2) FIG. 4 to FIG. 6 show results of the in vitro antibacterial experiments of the TCNH eye drop.

[3] = test system: Candida albicans (C. albicans); assay: in vitro antibacterial experiment of TCNH eye drop; type: cell-based
Text: as §1, §2

[4] = test system: drug-resistant P. aeruginosa; assay: in vitro antibacterial experiment of TCNH eye drop; type: cell-based, Pseudomonas aeruginosa
Text: as §1, §2

[5] = test system: P. aeruginosa; assay: in vitro antibacterial experiment of TCNH eye drop; type: cell-based, Pseudomonas aeruginosa
Text: as §1, §2

[6] = test system: P. aeruginosa; settings: P. aeruginosa isolated from the ocular surface; cited from earlier work
[7] = test system: drug-resistant P. aeruginosa strain; assay: in vivo antibacterial experiment, corneal infection (drug-resistant P. aeruginosa strain); settings: FIGS. 8A-8B
Text: as §1

OO [H2O2, hydrogen peroxide]
corneal infection [1]: obviously infected
bacterial colonies on plates (plate experiment) ([2]; FIG. 4): overgrown with bacteria
live bacteria stained green / dead bacteria stained red ([2]; FIG. 5): a large number of live bacteria stained green and a small number of dead bacteria stained red
bacterial morphology under a scanning electron microscope ([2]; FIG. 6): regular and intact morphology
bacterial colonies on plates (plate experiment) ([3]; FIG. 4): overgrown with bacteria
live bacteria stained green / dead bacteria stained red ([3]; FIG. 5): a large number of live bacteria stained green and a small number of dead bacteria stained red
bacterial morphology under a scanning electron microscope ([3]; FIG. 6): regular and intact morphology
bacterial colonies on plates (plate experiment) ([4]; FIG. 4): overgrown with bacteria
live bacteria stained green / dead bacteria stained red ([4]; FIG. 5): a large number of live bacteria stained green and a small number of dead bacteria stained red
bacterial morphology under a scanning electron microscope ([4]; FIG. 6): regular and intact morphology
bacterial colonies on plates (plate experiment) ([5]; FIG. 4): overgrown with bacteria
live bacteria stained green / dead bacteria stained red ([5]; FIG. 5): a large number of live bacteria stained green and a small number of dead bacteria stained red
bacterial morphology under a scanning electron microscope ([5]; FIG. 6): regular and intact morphology

CC(C)(O/N=C(\C(=O)N[C@@H]1C(=O)N2C(C(=O)[O-])=C(C[n+]3ccccc3)CS[C@H]12)c1csc(N)n1)C(=O)O [ceftazidime]
average resistance rate of P. aeruginosa to the antibiotic [6]: 13%

O=C(O)c1cn(C2CC2)c2cc(N3CCNCC3)c(F)cc2c1=O [ciprofloxacin]
average resistance rate of P. aeruginosa to the antibiotic [6]: 9%

NC[C@H]1O[C@H](O[C@H]2[C@H](O)[C@@H](O[C@H]3O[C@H](CO)[C@@H](O)[C@H](N)[C@H]3O)[C@H](N)C[C@@H]2N)[C@H](N)C[C@@H]1O [tobramycin]
corneal infection [7]: significant infection

gentamicin
corneal infection [7]: significant infection
average resistance rate of P. aeruginosa to the antibiotic [6]: 22%
